Test results reported in patent publication US11034672B1, “Tyrosine kinase inhibitor compositions, methods of making and methods of use” (Black Diamond Therapeutics, Inc., priority 2018, dated 2021).

Experiments:
Type in all cases: cell-based
[1] = target: T1, EGFR WT (Homo sapiens, UniProt P00533); experiment: Activity for inhibiting EGFR (Table A), EGFR WT; conditions: read-out: EGFR WT, potency code (IC50)
[2] = target: T2, EGFR V3 (Homo sapiens, UniProt P00533, DELINS30-297G); experiment: Activity for inhibiting EGFR (Table A), EGFR V3 (EGFR-Viii); conditions: read-out: EGFR V3, potency code (IC50)
T2 construct: expressed in transfected cells; host or cells: BaF3 (murine pro-B), retroviral pMXs-IRES-Blasticidin
T2 sequence (P00533 with tags, fused parts or gaps DELINS30-297G): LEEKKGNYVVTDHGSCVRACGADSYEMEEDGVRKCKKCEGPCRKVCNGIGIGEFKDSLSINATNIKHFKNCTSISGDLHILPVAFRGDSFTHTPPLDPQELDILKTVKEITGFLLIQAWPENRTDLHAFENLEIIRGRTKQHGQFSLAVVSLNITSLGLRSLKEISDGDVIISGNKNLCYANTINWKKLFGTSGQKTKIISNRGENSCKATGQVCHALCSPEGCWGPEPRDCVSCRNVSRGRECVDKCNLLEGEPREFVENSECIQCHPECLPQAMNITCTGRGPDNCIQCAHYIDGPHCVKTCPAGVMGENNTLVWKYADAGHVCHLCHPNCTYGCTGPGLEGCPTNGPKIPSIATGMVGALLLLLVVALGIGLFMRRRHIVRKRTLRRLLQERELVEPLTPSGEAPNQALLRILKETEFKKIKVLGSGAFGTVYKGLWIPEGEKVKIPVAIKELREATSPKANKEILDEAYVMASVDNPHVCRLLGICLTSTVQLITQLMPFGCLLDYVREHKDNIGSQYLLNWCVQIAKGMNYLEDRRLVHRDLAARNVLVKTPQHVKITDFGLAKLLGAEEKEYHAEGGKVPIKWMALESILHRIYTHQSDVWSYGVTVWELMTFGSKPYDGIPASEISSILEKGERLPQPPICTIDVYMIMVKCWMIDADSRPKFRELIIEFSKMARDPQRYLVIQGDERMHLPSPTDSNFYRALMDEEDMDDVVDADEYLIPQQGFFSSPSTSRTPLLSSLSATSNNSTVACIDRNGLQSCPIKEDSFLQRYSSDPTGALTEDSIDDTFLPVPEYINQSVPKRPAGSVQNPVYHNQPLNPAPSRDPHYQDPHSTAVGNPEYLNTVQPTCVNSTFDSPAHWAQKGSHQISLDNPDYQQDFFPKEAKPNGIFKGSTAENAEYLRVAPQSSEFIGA

[3] = target: T3, HER2 WT (Homo sapiens, UniProt P04626); experiment: Activity for inhibiting HER2 (Table B), HER2 WT
[4] = target: T4, HER2 S310F (Homo sapiens, UniProt P04626, S310F); experiment: Activity for inhibiting HER2 (Table B), HER2 S310F; conditions: read-out: HER2 S310F, potency code (IC50)
T4 construct: expressed in transfected cells; host or cells: BaF3 (murine pro-B)
T4 sequence (P04626 23-1255 S310F): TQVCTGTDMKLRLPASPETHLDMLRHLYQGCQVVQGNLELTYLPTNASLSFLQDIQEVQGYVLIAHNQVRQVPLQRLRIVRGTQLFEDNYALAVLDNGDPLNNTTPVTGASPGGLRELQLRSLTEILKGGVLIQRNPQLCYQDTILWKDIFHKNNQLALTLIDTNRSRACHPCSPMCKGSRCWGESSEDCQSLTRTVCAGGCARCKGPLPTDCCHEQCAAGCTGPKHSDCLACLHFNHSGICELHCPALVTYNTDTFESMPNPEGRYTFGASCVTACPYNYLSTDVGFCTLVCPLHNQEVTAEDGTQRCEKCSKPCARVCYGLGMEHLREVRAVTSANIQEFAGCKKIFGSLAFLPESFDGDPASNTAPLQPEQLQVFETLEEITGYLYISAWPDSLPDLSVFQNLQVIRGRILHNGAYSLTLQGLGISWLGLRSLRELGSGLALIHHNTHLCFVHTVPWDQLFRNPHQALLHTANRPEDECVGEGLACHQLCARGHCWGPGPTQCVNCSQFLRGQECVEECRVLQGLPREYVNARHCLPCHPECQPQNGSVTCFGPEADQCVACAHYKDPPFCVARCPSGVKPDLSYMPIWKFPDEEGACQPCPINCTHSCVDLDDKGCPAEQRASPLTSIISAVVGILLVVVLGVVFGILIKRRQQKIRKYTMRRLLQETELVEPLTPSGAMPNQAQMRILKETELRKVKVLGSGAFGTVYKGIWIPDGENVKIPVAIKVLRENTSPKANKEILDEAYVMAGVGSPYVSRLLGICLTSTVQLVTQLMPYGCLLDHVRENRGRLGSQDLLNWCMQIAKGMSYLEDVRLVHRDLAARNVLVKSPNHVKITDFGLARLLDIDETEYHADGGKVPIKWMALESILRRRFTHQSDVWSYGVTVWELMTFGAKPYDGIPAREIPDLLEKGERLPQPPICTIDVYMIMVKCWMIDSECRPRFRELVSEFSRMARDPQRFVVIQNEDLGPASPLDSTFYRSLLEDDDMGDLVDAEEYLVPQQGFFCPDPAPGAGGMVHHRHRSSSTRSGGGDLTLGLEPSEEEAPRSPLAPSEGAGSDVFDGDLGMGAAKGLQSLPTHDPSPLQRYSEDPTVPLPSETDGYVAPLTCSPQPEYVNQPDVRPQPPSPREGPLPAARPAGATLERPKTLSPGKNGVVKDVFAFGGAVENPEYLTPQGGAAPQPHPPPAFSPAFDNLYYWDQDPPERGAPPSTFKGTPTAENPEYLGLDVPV
Description: (§1) EC50 values were determined with the same application.

[5] = target: T1, EGFR WT; experiment: BaF3 cell proliferation assay, EGFR WT (Table A); conditions: potency code, 3 days, CellTiterGlo, read-out: EGFR WT (Activity for Inhibiting EGFR)
Procedure, shortened: (§2)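 Readout: EC50 for BaF3 proliferation. Cells stably expressing the receptor variant were generated by retrovirus and IL-3 independence.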

[6] = target: T2, EGFR V3; experiment: BaF3 cell proliferation assay, EGFR V3 (Table A); conditions: potency code, 3 days, CellTiterGlo, read-out: EGFR V3 (Activity for Inhibiting EGFR)
Procedure, shortened: as §2

[7] = target: T3, HER2 WT; experiment: BaF3 cell proliferation assay, HER2 WT (Table B); conditions: potency code, 3 days, CellTiterGlo, read-out: HER2 WT (Activity for Inhibiting HER2)
[8] = target: T4, HER2 S310F; experiment: BaF3 cell proliferation assay, HER2 S310F (Table B); conditions: potency code, 3 days, CellTiterGlo, read-out: HER2 S310F (Activity for Inhibiting HER2)
[9] = target: T5, HER2 YVMA (Homo sapiens, UniProt P04626, INS775YVMA); experiment: Activity for inhibiting HER2 (Table B), HER2 YVMA; conditions: read-out: HER2 YVMA, potency code (IC50)
T5 construct: expressed in transfected cells; host or cells: BaF3 (murine pro-B)
T5 sequence (P04626 with tags, fused parts or gaps INS775YVMA): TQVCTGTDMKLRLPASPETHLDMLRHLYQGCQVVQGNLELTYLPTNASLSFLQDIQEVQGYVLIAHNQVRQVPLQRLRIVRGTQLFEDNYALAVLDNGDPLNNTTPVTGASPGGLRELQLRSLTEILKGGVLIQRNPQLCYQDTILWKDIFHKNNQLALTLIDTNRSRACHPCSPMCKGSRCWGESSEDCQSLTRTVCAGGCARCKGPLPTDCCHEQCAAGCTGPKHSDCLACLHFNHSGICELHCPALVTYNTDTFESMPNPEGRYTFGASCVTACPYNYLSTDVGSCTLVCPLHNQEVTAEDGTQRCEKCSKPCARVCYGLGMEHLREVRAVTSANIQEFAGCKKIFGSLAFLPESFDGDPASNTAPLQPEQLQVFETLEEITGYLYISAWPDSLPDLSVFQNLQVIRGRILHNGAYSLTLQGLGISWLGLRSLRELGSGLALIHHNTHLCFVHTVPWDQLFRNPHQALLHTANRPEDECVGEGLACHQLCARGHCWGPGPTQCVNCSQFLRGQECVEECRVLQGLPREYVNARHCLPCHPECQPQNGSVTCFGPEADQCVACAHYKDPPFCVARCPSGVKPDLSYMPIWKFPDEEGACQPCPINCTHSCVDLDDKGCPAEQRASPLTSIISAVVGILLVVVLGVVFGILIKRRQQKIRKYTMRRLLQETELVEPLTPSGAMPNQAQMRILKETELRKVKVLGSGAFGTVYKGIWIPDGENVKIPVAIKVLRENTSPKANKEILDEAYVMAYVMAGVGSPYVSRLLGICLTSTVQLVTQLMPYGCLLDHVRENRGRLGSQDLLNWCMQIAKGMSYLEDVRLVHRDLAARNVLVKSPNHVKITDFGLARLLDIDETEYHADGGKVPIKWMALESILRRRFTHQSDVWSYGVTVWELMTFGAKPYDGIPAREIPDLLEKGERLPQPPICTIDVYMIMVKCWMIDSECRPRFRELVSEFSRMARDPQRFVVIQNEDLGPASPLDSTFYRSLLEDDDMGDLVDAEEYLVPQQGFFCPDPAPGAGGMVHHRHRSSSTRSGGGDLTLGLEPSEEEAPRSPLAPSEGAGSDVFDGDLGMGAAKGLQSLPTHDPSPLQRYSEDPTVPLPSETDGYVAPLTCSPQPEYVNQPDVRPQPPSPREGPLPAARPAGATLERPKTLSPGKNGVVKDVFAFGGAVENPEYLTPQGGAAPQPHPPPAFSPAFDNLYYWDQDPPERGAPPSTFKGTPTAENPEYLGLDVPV
Description: as §1

[10] = target: T5, HER2 YVMA; experiment: BaF3 cell proliferation assay, HER2 YVMA (Table B); conditions: potency code, 3 days, CellTiterGlo, read-out: HER2 YVMA (Activity for Inhibiting HER2)
[11] = Table B, read-out: HER2 WT, potency code (IC50)
[12] = text lists of compounds, read-out: IC50 value for inhibiting wild-type HER2

T1 sequence (P00533 25-1210 N540K): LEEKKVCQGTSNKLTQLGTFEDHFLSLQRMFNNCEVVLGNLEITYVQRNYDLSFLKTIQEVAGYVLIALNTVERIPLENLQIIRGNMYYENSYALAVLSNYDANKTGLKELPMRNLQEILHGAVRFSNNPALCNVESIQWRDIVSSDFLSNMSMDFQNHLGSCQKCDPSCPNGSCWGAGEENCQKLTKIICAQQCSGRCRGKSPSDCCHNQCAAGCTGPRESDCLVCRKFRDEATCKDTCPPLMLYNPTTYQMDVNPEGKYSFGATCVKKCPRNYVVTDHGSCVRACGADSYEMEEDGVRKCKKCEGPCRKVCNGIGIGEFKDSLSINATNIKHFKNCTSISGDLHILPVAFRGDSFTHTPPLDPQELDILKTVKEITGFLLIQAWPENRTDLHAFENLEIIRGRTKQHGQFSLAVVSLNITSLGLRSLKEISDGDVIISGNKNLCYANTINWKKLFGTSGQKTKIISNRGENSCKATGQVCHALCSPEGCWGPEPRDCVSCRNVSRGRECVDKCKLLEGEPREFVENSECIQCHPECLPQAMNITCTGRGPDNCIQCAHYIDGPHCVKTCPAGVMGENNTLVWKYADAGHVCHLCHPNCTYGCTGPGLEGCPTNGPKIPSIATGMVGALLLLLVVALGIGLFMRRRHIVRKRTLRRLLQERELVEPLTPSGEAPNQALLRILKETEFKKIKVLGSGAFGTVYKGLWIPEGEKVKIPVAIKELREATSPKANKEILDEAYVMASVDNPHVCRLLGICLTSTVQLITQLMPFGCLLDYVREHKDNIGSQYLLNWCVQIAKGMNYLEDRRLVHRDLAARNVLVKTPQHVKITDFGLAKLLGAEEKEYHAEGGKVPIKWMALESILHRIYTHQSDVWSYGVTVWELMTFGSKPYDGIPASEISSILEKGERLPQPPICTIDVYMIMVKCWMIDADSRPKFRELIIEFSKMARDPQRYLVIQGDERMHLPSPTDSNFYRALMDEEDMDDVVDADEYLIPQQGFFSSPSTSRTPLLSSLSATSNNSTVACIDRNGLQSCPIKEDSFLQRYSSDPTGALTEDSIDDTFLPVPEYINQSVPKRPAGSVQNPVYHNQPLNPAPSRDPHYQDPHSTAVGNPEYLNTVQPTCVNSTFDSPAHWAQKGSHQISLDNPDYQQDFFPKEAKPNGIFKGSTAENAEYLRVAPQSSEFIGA

Row | Structure (SMILES) | IC50 [1] | IC50 [2] | IC50 [3, 11] | IC50 [3, 12] | IC50 [4] | IC50 [5] | IC50 [6] | IC50 [7] | IC50 [8] | IC50 [9] | IC50 [10]
1 | C=CC(=O)Nc1cc2c(Nc3ccc(OCc4ccccn4)c(Cl)c3)ncnc2cc1OCCn1ccnc1 [compound 10] | > 1000 nM | 50 to 100 nM | 10 to 20 nM | ≤ 20 nM | 20 to 30 nM | > 1000 nM | 50 to 100 nM | 10 to 20 nM | 20 to 30 nM | 200 to 300 nM | 200 to 300 nM
2 | C=CC(=O)Nc1cc2c(Nc3ccc(OCc4ccccn4)c(Cl)c3)ncnc2cc1N1CCC2(CCN(C)C2)C1 (stereo not drawn) [compound 46] | 300 to 500 nM | 50 to 100 nM | 20 to 30 nM | ≤ 50 nM | 100 to 200 nM | 300 to 500 nM | 50 to 100 nM | 20 to 30 nM | 100 to 200 nM | – | –
3 | C=CC(=O)Nc1cc2c(Nc3ccc(OCc4ccccn4)c(Cl)c3)ncnc2cc1OC1CCN(C)C1 (stereo not drawn) [compound 16] | 200 to 300 nM | 20 to 30 nM | < 5 nM | ≤ 5 nM | 20 to 30 nM | 200 to 300 nM | 20 to 30 nM | < 5 nM | 20 to 30 nM | 30 to 50 nM | 30 to 50 nM
4 | C=CC(=O)Nc1cc2c(Nc3ccc(OCc4ccccn4)c(Cl)c3)ncnc2cc1O[C@H]1CCN(C)C1 [compound 18] | 300 to 500 nM | 20 to 30 nM | 5 to 10 nM | ≤ 10 nM | 20 to 30 nM | 300 to 500 nM | 20 to 30 nM | 5 to 10 nM | 20 to 30 nM | 50 to 100 nM | 50 to 100 nM
5 | C=CC(=O)Nc1cc2c(Nc3ccc(OCc4ccccn4)c(Cl)c3)ncnc2cc1OCC1CCCN1C (stereo not drawn) [compound 14] | 300 to 500 nM | 30 to 50 nM | 10 to 20 nM | ≤ 20 nM | 50 to 100 nM | 300 to 500 nM | 30 to 50 nM | 10 to 20 nM | 50 to 100 nM | – | –

The remaining lines, values ahead:

Row | IC50 [1] | IC50 [2] | IC50 [3, 11] | IC50 [3, 12] | IC50 [4] | IC50 [5] | IC50 [6] | IC50 [7] | IC50 [8] | IC50 [9] | IC50 [10] | Structure (SMILES)
6 | 300 to 500 nM | 30 to 50 nM | 10 to 20 nM | ≤ 20 nM | 20 to 30 nM | 300 to 500 nM | 30 to 50 nM | 10 to 20 nM | 20 to 30 nM | – | – | C=CC(=O)Nc1cc2c(Nc3ccc(OCc4cccc(F)c4)c(Cl)c3)ncnc2cc1OCCCN1CCOCC1 [compound 3]
7 | > 1000 nM | 100 to 200 nM | 100 to 200 nM | – | 200 to 300 nM | > 1000 nM | 100 to 200 nM | 100 to 200 nM | 200 to 300 nM | – | – | C=CC(=O)Nc1cc2c(Nc3ccc(OCc4ccccn4)c(Cl)c3)ncnc2cc1N(C)CCN1CCOCC1 [compound 7]
8 | 500 to 1000 nM | 20 to 30 nM | 10 to 20 nM | ≤ 20 nM | 10 to 20 nM | 500 to 1000 nM | 20 to 30 nM | 10 to 20 nM | 10 to 20 nM | 50 to 100 nM | 50 to 100 nM | C=CC(=O)Nc1cc2c(Nc3ccc(OCc4ccccn4)c(Cl)c3)ncnc2cc1C#CC(C)(C)N1CCN(C)CC1 [compound 65]
9 | > 1000 nM | 100 to 200 nM | 50 to 100 nM | – | 500 to 1000 nM | > 1000 nM | 100 to 200 nM | 50 to 100 nM | 500 to 1000 nM | – | – | C=CC(=O)Nc1cc2c(Nc3ccc(OCc4cccc(F)c4)c(Cl)c3)ncnc2cc1N(C)CCN(C)C [compound 1]
